Measured values reported in BigSolDB 2.1.

CCCSc1nc(N[C@@H]2C[C@H]2c2ccc(F)c(F)c2)c2nnn([C@@H]3C[C@H](OCCO)[C@@H](O)[C@H]3O)c2n1
solubility (mole fraction)
Conditions | 273.15 K | 278.15 K | 283.15 K | 288.15 K | 293.15 K | 298.15 K | 303.15 K | 308.15 K | 313.15 K
in 2-butanone | 0.0218 | 0.0269 | 0.0321 | 0.038 | 0.0439 | 0.051 | 0.0584 | 0.0673 | 0.0776
in acetonitrile | 0.000876 | 0.00115 | 0.00144 | 0.00179 | 0.00217 | 0.0026 | 0.00309 | 0.00359 | 0.00416
in cyclohexanone | 0.0265 | 0.0316 | 0.0374 | 0.0437 | 0.051 | 0.0578 | 0.0661 | 0.0744 | 0.0832
in ethanol | 0.00315 | 0.0041 | 0.00503 | 0.00625 | 0.00747 | 0.00881 | 0.0105 | 0.0125 | 0.0149
in ethyl acetate | 0.00409 | 0.00504 | 0.00608 | 0.00716 | 0.00855 | 0.0101 | 0.0118 | 0.0135 | 0.0157
in isobutanol | 0.00148 | 0.00176 | 0.00209 | 0.00243 | 0.00284 | 0.00324 | 0.00373 | 0.00425 | 0.00484
in isopropanol | 0.00251 | 0.00286 | 0.00325 | 0.00364 | 0.00404 | 0.00446 | 0.00496 | 0.00547 | 0.00599
in methanol | 0.00494 | 0.00615 | 0.00741 | 0.0092 | 0.0114 | 0.014 | 0.0169 | 0.0203 | 0.0239
in n-butanol | 0.00289 | 0.00363 | 0.0045 | 0.00542 | 0.00656 | 0.00768 | 0.00895 | 0.0103 | 0.0118
in n-octanol | 0.0021 | 0.00233 | 0.00263 | 0.00292 | 0.00327 | 0.00367 | 0.00406 | 0.00456 | 0.0051
in n-propanol | 0.00268 | 0.00327 | 0.00389 | 0.00462 | 0.00535 | 0.00612 | 0.00692 | 0.00776 | 0.00872
in toluene | 3e-05 | 3.8e-05 | 4.9e-05 | 6.3e-05 | 8e-05 | 0.000102 | 0.00013 | 0.00016 | 0.000196
